32 molecules from patent US20120115845A1, “THERAPEUTIC AGENTS” (priority 2007, published 2012) can be followed below.

In one assay the target is T1, human GHS receptor (Homo sapiens, UniProt Q92847). Nature of the assay: h bind IC50 (binding assay, Table 1).
T1 sequence (Q92847 whole entry): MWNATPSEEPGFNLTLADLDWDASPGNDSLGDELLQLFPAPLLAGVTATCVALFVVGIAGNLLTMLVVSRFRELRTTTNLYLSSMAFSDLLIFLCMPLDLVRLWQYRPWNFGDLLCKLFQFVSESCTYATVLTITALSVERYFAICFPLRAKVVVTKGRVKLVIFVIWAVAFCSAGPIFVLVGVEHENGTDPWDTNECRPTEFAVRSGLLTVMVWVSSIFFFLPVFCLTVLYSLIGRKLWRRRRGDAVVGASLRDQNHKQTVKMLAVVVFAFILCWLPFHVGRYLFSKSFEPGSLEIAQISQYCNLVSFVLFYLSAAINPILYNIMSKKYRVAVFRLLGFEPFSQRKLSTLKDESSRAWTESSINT
Details: not given
Take `COc1cc(Cl)c(C(=O)NC(=O)Nc2nc3ccc(S(C)(=O)=O)cc3s2)cc1OC` [2-chloro-4,5-dimethoxy-N-[(6-methylsulfonyl-1,3-benzothiazol-2-yl)carbamoyl]benzamide]: the “IC50 in the binding assay” value is listed as “did not have IC50s in the range of about 0.001 μM to about 10 μM”.
As for `CS(=O)(=O)c1ccc2nc(NC(=O)NC(=O)c3cc(F)ccc3Cl)sc2c1` [2-chloro-5-fluoro-N-[(6-methylsulfonylbenzothiazol-2-yl)carbamoyl]benzamide], the “IC50 in the binding assay” value is recorded as “did not have IC50s in the range of about 0.001 μM to about 10 μM”.

The assay is the same for the next values; noted with them: human receptor; Table 1.
A word on the IC50: it is the concentration needed to halve the response being measured. A high value points to lower potency. For the molecule `O=C(NC(=O)c1ccccc1Cl)Nc1nc2ccc(S(=O)(=O)CCOCCO)cc2s1` [Example 121, 2-Chloro-N-[[6-[2-(2-hydroxyethoxy)ethylsulfonyl]benzothiazol-2-yl]carbamoyl]benzamide], the IC50 turned out to be 400 nM.
`CN(C)CCS(=O)(=O)c1ccc2nc(NC(=O)NC(=O)c3ccccc3Cl)sc2c1` [Example 3, 2-Chloro-N-[[6-(2-dimethylaminoethylsulfonyl)benzothiazol-2-yl]carbamoyl]benzamide] yielded an IC50 of 1120 nM.
The molecule `CN1CCC(S(=O)(=O)c2ccc3nc(NC(=O)NC(=O)c4ccccc4Cl)sc3c2)C1` (stereo not drawn) [Example 167, 2-Chloro-N-[[6-(1-methylpyrroldin-3-yl)sulfonylbenzothazol-2-yl]carbamoyl]benzamide] showed a half-maximal inhibitory concentration (IC50) of 109 nM.
As to `CN1CCC[C@@H]1CS(=O)(=O)c1ccc2nc(NC(=O)NC(=O)c3ccccc3Cl)sc2c1` [Example 169, 2-Chloro-N-[[6-[[(2R)-1-methylpyrrolidin-2-yl]methylsulfonyl]benzothiazol-2-yl]carbamoyl]benzamide], the 50% inhibitory concentration (IC50) was 151 nM.
On to `CC1(NCCS(=O)(=O)c2ccc3nc(NC(=O)NC(=O)c4ccccc4Cl)sc3c2)CC1` [Example 39, 2-Chloro-N-[[6-[2-[(1-methylcyclopropyl)amino]ethylsulfonyl]benzothiazol-2-yl]carbamoyl]benzamide], for which the half-maximal inhibitory concentration (IC50) is 179 nM. The IC50 values of the last two molecules are within 1.5-fold of each other.
Molecule `O=C(NC(=O)c1ccccc1Cl)Nc1nc2ccc(S(=O)(=O)CCNCC3CCCO3)cc2s1` (stereo not drawn) [Example 22, 2-Chloro-N-[[6-[2-(oxolan-2-ylmethylamino)ethylsulfonyl]benzothiazol-2-yl]carbamoyl]benzamide] had an IC50 of 184 nM.
Molecule `COCCS(=O)(=O)c1ccc2nc(NC(=O)NC(=O)c3ccccc3Cl)sc2c1` [Example 40, 2-Chloro-N-[[6-(2-methoxyethylsulfonyl)benzothiazol-2-yl]carbamoyl]benzamide] gave an IC50 of 1820 nM.
`COCCN(C)CCS(=O)(=O)c1ccc2nc(NC(=O)NC(=O)c3ccccc3Cl)sc2c1` [Example 9, 2-Chloro-N-[[6-[2-(2-methoxyethyl-methyl-amino)ethylsulfonyl]benzothiazol-2-yl]carbamoyl]benzamide] came in with an IC50 of 247 nM.
The same measure, in the same setting: the same measure for `O=C(NC(=O)c1ccccc1Cl)Nc1nc2ccc(S(=O)(=O)CCCN3CCC(F)(F)CC3)cc2s1` [Example 158, 2-Chloro-N-[[6-[3-(4,4-difluoro-1-piperidyl)propylsulfonyl]benzothiazol-2-yl]carbamoyl]benzamide]: 104 nM; for `CN1CCC(S(=O)(=O)c2ccc3nc(NC(=O)NC(=O)c4ccccc4Cl)sc3c2)CC1` [Example 184, 2-Chloro-N-[[6-[(1-methyl-4-piperidyl)sulfonyl]benzothiazol-2-yl]carbamoyl]benzamide]: 33.7 nM.
Turning to `CCN(CCOC)CCS(=O)(=O)c1ccc2nc(NC(=O)NC(=O)c3ccccc3Cl)sc2c1` [Example 15, 2-Chloro-N-[[6-[2-(ethyl-(2-methoxyethyl)amino)ethylsulfonyl]benzothiazol-2-yl]carbamoyl]benzamide], the IC50 was determined as 1080 nM. This IC50 lies about 32-fold higher than the previous one.
`O=C(NC(=O)c1ccccc1Cl)Nc1nc2ccc(S(=O)(=O)C[C@H]3CCCN3CC3CC3)cc2s1` [Example 156, 2-Chloro-N-[[6-[[(2R)-1-(cyclopropylmethyl)pyrrolidin-2-yl]methylsulfonyl]benzothiazol-2-yl]carbamoyl]benzamide] registered an IC50 of 64 nM.
In the case of `O=C(NC(=O)c1ccccc1Cl)Nc1nc2ccc(S(=O)(=O)CCNCCF)cc2s1` [Example 31, 2-Chloro-N-[[6-[2-(2-fluoroethylamino)ethylsulfonyl]benzothiazol-2-yl]carbamoyl]benzamide], the concentration for half-maximal inhibition (IC50) came out at 54.6 nM.
On to `O=C(NC(=O)c1ccccc1Cl)Nc1nc2ccc(S(=O)(=O)CCCN3CCC(F)C3)cc2s1` (stereo not drawn) [Example 157, 2-Chloro-N-[[6-[3-(3-fluoropyrrolidin-1-yl)propylsulfonyl]benzothiazol-2-yl]carbamoyl]benzamide], for which the IC50 was 78.5 nM. The IC50 values of the last two molecules are within 1.5-fold of each other.
As to `O=C(NC(=O)c1cc(-n2cccc2)ccc1Cl)Nc1nc2ccc(S(=O)(=O)CCN3CCC3)cc2s1` [Example 81, N-[[6-[2-(Azetidin-1-yl)ethylsulfonyl]benzothiazol-2-yl]carbamoyl]-2-chloro-5-pyrrol-1-yl-benzamide], the 50% inhibitory concentration (IC50) amounted to 2 nM.
Consider `CCN(CC)CCS(=O)(=O)c1ccc2nc(NC(=O)NC(=O)c3ccccc3Cl)sc2c1` [Example 7, 2-Chloro-N-[[6-(2-diethylaminoethylsulfonyl)benzothiazol-2-yl]carbamoyl]benzamide], for which the IC50 worked out at 670 nM.
On the same count and under the same terms, the same measure for `COc1cc(Cl)c(C(=O)NC(=O)Nc2nc3ccc(S(=O)(=O)C4CCNCC4)cc3s2)cc1-n1cccn1` [Example 263, 2-chloro-4-methoxy-N-(6-(piperidin-4-ylsulfonyl)benzo [d]thiazol-2-ylcarbamoyl) 5-(1H-pyrazol-1-yl)benzamide]: 1.12 nM.
On the same count and under the same terms, the same measure for `CC(C)N1CCC(S(=O)(=O)c2ccc3nc(NC(=O)NC(=O)c4ccccc4Cl)sc3c2)CC1` [Example 174, 2-Chloro-N-[[6-[(1-propan-2-yl-4-piperidyl)sulfonyl]benzothiazol-2-yl]carbamoyl]benzamide]: 139 nM; for `COCCNCCCS(=O)(=O)c1ccc2nc(NC(=O)NC(=O)c3cc(-n4cccc4)ccc3Cl)sc2c1` [Example 76, 2-Chloro-N-[[6-[3-(2-methoxyethylamino)propylsulfonyl]benzothiazol-2-yl]carbamoyl]-5-pyrrol-1-yl-benzamide]: 11.4 nM; for `O=C(NC(=O)c1ccccc1Cl)Nc1nc2ccc(S(=O)(=O)C3CCN(CC4CC4)C3)cc2s1` (stereo not drawn) [Example 144, 2-Chloro-N-[[6-[1-(cyclopropylmethyl)pyrrolidin-3-yl]sulfonylbenzothiazol-2-yl]carbamoyl]benzamide]: 201 nM.
Consider `CC(C)NCCS(=O)(=O)c1ccc2nc(NC(=O)NC(=O)c3cc(-n4cccc4)ccc3Cl)sc2c1` [Example 82, 2-Chloro-N-[[6-[2-(propan-2-ylamino)ethylsulfonyl]benzothiazol-2-yl]carbamoyl]-5-pyrrol-1-yl-benzamide], for which the IC50 came out at 1.6 nM. This IC50 is about 130-fold lower than that of the molecule before.
`CN(C)C1CC(Oc2ccc(Cl)c(C(=O)NC(=O)Nc3nc4ccc(S(C)(=O)=O)cc4s3)c2)C1` (stereo not drawn) [Example 269, 2-Chloro-5-(3-dimethylaminocyclobutoxy)-N-[(6-methylsulfonyl-1,3-benzothiazol-2-yl)carbamoyl]benzamide] displayed a half-maximal inhibitory concentration (IC50) of 8730 nM.
As for `CN(C)CC1CCN(c2ccc(Cl)c(C(=O)NC(=O)Nc3nc4ccc(S(C)(=O)=O)cc4s3)c2)C1` (stereo not drawn) [Example 270, 2-Chloro-5-[3-(dimethylaminomethyl)pyrrolidin-1-yl]-N-[(6-methylsulfonyl-1,3-benzothiazol-2-yl)carbamoyl]benzamide], the IC50 is 762 nM.
`C=CS(=O)(=O)c1ccc2nc(NC(=O)NC(=O)c3ccccc3Cl)sc2c1` [Example 129, 2-Chloro-N-[(6-ethenylsulfonylbenzothiazol-2-yl)carbamoyl]benzamide] returned an IC50 of 219 nM.
The molecule `O=C(NC(=O)c1ccccc1Cl)Nc1nc2ccc(S(=O)(=O)CCCN3CCC(O)C3)cc2s1` (stereo not drawn) [Example 160, 2-Chloro-N-[[6-[3-(3-hydroxypyrrolidin-1-yl)propylsulfonyl]benzothiazol-2-yl]carbamoyl]benzamide] came in with an IC50 of 29.6 nM.

Another assay addresses T1, human GHS receptor. The experiment in a line: Ghrelin IP1 agonist assay (IP1 HTRF). Further details: expressed in transfected cells; host or cells: HEK293s. The note with it: 2 h; agonist effect as % maximal effect of GHRP-6 (5 μM); read-out: h IP1 ag %. Type of assay: cell-based. The protocol:
In HEK293s cells stably expressing human GHS receptor (In-house), agonist activity was assessed by measuring intracellular myo-Inositol 1 phosphate (IP1) using the IP1 HTRF assay kit (Cisbio International).
Cells were harvested using accutase (Sigma), spun down at 1000 rpm for 5 minutes and resuspended in stimulation buffer (as above) containing 0.02% fatty acid free BSA at a density of 1.43E6cells/ml.
Agonist effect of the compound was expressed as % maximal effect of GHRP-6 (5 μM: Bachem). Sigmoidal curves were fitted by Origin 7.5 Client and EC50 values determined.
As to `CS(=O)(=O)c1ccc2nc(NC(=O)NC(=O)c3c(F)cccc3F)sc2c1` [Example 112, 2,6-Difluoro-N-[(6-methylsulfonylbenzothiazol-2-yl)carbamoyl]benzamide], the Emax stood at 38.4%.
The same measure, in the same setting: the same measure for `CS(=O)(=O)c1ccc2nc(NC(=O)NC(=O)c3ccccc3-c3ccc(F)cc3)sc2c1` [Example 126, 2-(4-Fluorophenyl)-N-[(6-methylsulfonylbenzothiazol-2-yl)carbamoyl]benzamide]: 38.4%; for `CS(=O)(=O)c1ccc2nc(NC(=O)NC(=O)c3ccccc3-c3ccccc3F)sc2c1` [Example 125, 2-(2-Fluorophenyl)-N-[(6-methylsulfonylbenzothiazol-2-yl)carbamoyl]benzamide]: 31.8%.
On to `NC(=O)COCCS(=O)(=O)c1ccc2nc(NC(=O)NC(=O)c3ccccc3Cl)sc2c1` [Example 120, N-[[6-[2-(Carbamoylmethoxy)ethylsulfonyl]benzothiazol-2-yl]carbamoyl]-2-chloro-benzamide], for which the Emax amounted to 29.5%.

The same assay, now with this note: HEK293s cells stably expressing human GHS receptor; 2 hours at 37° C.; read-out: h IP1 ag EC50.
One may read the EC50 as the concentration at which the effect is half-maximal. As for `CS(=O)(=O)c1ccc2nc(NC(=O)NC(=O)c3c(F)cccc3F)sc2c1` [Example 112, 2,6-Difluoro-N-[(6-methylsulfonylbenzothiazol-2-yl)carbamoyl]benzamide], the EC50 came out at 142 nM.
In the case of `CS(=O)(=O)c1ccc2nc(NC(=O)NC(=O)c3ccccc3-c3ccc(F)cc3)sc2c1` [Example 126, 2-(4-Fluorophenyl)-N-[(6-methylsulfonylbenzothiazol-2-yl)carbamoyl]benzamide], the 50% effective concentration (EC50) was 1030 nM.
In the case of `CS(=O)(=O)c1ccc2nc(NC(=O)NC(=O)c3ccccc3-c3ccccc3F)sc2c1` [Example 125, 2-(2-Fluorophenyl)-N-[(6-methylsulfonylbenzothiazol-2-yl)carbamoyl]benzamide], the EC50 was found to be 252 nM.
For the molecule `NC(=O)COCCS(=O)(=O)c1ccc2nc(NC(=O)NC(=O)c3ccccc3Cl)sc2c1` [Example 120, N-[[6-[2-(Carbamoylmethoxy)ethylsulfonyl]benzothiazol-2-yl]carbamoyl]-2-chloro-benzamide], the half-maximal effective concentration (EC50) was determined as 211 nM.

Still in this assay, the particulars now being: agonist effect as % maximal effect of GHRP-6 (5 μM).
Turning to `CCS(=O)(=O)c1ccccc1C(=O)NC(=O)Nc1nc2ccc(S(C)(=O)=O)cc2s1` [Example 135, 2-Ethyl sulfonyl-N-[(6-methylsulfonylbenzothiazol-2-yl)carbamoyl]benzamide], the “h IP1 ag %” value was 18.23%.
